Results on 1 substance are retold here after patent publication US8637684B2, “Tautomycetin and tautomycetin analog biosynthesis” (Wisconsin Alumni Research Foundation, priority 2010, dated 2014).

Where two headings read alike, the source gives them in different places. Bounds are passed on as bounds.

The target in one assay is SHP1 (Homo sapiens, UniProt P29350). In words: PTP activity assay with pNPP as substrate: SHP1. Format: biochemical. The settings on record: pNPP as substrate at Km, pH 7.0, 25° C., I = 0.15 M.
Sequence of SHP1 (P29350 whole entry): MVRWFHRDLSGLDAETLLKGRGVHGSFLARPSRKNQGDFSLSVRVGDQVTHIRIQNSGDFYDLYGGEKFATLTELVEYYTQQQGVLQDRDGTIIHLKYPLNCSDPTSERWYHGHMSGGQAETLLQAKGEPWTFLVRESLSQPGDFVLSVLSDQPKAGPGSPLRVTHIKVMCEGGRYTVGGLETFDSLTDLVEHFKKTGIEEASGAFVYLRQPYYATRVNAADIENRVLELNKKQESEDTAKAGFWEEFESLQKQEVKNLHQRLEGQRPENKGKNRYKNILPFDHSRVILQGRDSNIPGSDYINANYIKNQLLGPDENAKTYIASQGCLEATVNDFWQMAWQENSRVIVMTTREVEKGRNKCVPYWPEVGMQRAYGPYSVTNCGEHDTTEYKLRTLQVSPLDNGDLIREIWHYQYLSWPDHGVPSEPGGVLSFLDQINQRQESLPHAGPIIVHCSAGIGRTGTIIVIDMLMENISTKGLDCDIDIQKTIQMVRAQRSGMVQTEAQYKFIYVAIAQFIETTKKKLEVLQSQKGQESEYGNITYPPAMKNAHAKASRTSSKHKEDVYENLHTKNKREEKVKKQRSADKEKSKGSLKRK
Assay [1] concerns GM-CSF induced ERK1/2 activation in macrophage progenitors. The assay can be described thus: GM-CSF induced ERK1/2 activation in macrophage progenitors, immunoblot. The assay is classed as cell-based. The settings on record: 2 μM TTN for 2 hours, GM-CSF 50 ng/mL. As for the experimental part: Bone marrow low density mononuclear cells (LDMNCs) were transduced with MIEG3 (empty vector), MIEG3-WT SHP2, or MIEG3-SHP2/E76K, sorted based on enhanced green fluorescent protein (EGFP) expression, and cultured for 5 days in M-CSF 100 ng/mL to generate macrophage progenitors, as previously described (Chan et al., 2005). Cells were serum- and growth factor-deprived for 16 hours, treated with 2 μM TTN for 2 hours, and stimulated with GM-CSF 50 ng/mL followed by preparation of protein extracts. Extracts were evaluated by immunoblot using α-phospho-ERK1/2 for activated ERK levels and α-ERK1/2 for total ERK levels (Cell Signaling Technology, Beverly, Mass.).
For biochemical studies, macrophage progenitor cells expressing empty vector (MIEG3), wild-type SHP2, or SHP2/E76K were serum- and growth factor-deprived for […]. Cells were pre-treated with DMSO or 2 μM TTN for 2 hours, and then cultures either remained unstimulated or were stimulated with GM-CSF at 50 ng/mL for 60 minutes. […] They next examined the effect of TTN on GM-CSF-stimulated hyperproliferation of SHP2/E76K-expressing hematopoietic progenitors. […] To provide further evidence that SHP2 is a molecular target of TTN, the inventors determined the X-ray crystal structure of SHP2 in complex with TTN D-1, as crystallization attempts for the SHP2-TTN complex were unsuccessful. […]

Assay [2] relates to human primary T-cell tyrosine phosphorylation. The settings on record: Shim et al., 2002, cited from earlier work.
The next assay has as its target T1, PTP1B (Homo sapiens, UniProt P18031).
T1 sequence (P18031 1-435): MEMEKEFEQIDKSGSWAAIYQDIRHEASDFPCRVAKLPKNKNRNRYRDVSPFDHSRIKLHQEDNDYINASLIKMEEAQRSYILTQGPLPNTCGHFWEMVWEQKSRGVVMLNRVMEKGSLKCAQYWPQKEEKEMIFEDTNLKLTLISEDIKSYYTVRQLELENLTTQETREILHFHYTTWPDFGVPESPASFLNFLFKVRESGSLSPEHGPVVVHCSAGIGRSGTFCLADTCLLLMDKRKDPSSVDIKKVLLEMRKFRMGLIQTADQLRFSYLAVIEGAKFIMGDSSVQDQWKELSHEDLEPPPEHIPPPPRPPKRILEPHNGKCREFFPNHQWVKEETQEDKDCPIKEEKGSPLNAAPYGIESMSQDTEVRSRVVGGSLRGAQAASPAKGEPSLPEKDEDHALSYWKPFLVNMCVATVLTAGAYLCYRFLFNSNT
In words: PTP activity assay with pNPP as substrate: PTP1B. The assay is classed as biochemical. The settings on record: pNPP as substrate at Km, pH 7.0, 25° C., I = 0.15 M.

In another assay the target is T2, Lyp (Homo sapiens, UniProt Q9Y2R2).
T2 sequence (Q9Y2R2 1-807): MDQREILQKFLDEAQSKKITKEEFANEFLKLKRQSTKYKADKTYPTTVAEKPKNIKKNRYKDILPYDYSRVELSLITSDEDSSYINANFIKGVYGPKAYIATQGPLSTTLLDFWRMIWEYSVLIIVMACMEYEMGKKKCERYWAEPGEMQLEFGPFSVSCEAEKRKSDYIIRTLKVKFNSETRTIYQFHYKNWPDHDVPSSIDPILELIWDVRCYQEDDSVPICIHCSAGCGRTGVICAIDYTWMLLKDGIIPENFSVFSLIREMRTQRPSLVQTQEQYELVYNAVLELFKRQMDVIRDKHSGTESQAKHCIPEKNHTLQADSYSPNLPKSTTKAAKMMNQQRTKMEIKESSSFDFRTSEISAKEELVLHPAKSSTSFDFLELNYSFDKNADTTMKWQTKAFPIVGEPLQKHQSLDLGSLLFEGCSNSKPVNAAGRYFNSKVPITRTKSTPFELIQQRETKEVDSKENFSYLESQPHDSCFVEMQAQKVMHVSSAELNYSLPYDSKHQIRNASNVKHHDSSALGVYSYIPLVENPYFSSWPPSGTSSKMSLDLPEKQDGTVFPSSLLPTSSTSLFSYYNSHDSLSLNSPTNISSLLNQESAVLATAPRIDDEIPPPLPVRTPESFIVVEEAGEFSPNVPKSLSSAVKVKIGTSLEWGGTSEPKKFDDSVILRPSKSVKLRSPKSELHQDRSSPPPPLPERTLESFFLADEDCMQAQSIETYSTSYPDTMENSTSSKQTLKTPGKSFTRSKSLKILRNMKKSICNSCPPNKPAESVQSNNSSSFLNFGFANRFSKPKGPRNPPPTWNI
The assay can be described thus: PTP activity assay with pNPP as substrate: Lyp. The assay is classed as biochemical. The settings on record: pNPP as substrate at Km, pH 7.0, 25° C., I = 0.15 M.

The target of a further assay is VHR (Homo sapiens, UniProt P51452). The assay can be described thus: PTP activity assay with pNPP as substrate: VHR. The settings on record: pNPP as substrate at Km, pH 7.0, 25° C., I = 0.15 M. Format: biochemical.
Sequence of VHR (P51452 whole entry, species assumed): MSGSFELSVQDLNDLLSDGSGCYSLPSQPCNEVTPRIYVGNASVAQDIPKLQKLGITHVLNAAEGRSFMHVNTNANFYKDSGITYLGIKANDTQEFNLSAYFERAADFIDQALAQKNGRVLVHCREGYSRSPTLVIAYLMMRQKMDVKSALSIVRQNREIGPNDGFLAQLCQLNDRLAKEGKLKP

Protocol for Lyp: (§1) The PTP activity was assayed using pNPP as a substrate at 25° C. in 50 mM 3,3-dimethylglutarate buffer, pH 7.0, containing 1 mM EDTA with an ionic strength of 0.15 M adjusted by NaCl. TTM, TTN and the engineered analogs were analyzed for inhibition of a panel of PTPs at 10 μM compound concentration. For each enzyme screened, test compounds were diluted to 20 μM in 100 μL and combined with 50 μL pNPP at a concentration of 4×Km. The reaction was initiated by the addition of 50 μL of 4× concentrated enzyme and pNPP was allowed to convert to the product p-nitrophenol. The reaction was quenched by the addition of 50 μL of 5N NaOH. Nonenzymatic hydrolysis of pNPP was corrected by measuring the control without the addition of enzyme. Production of p-nitrophenol was monitored by a Spectra MAX385 microplate spectrophotometer (Molecular Devices) at 405 nm using a molar extinction coefficient of 18,000 M^−1 cm^−1. IC50 values were calculated by fitting the absorbance at 405 nm versus inhibitor concentration to the following equation: AI/A0=IC50/(IC50+[I]) where AI is the absorbance at 405 nm of the sample in the presence of inhibitor; Ao is the absorbance at 405 nm in the absence of inhibitor; and [I] is the concentration of the inhibitor.
Protocol for PTP1B: as §1
Protocol for SHP1: as §1
Protocol for VHR: as §1

Turning to tautomycetin [TTN], the IC50 against SHP1 was 14.6 µM; at PTP1B, 40 µM; against Lyp it was 20 µM; against VHR, > 50 µM. For the same substance, the “effect on ERK1/2 hyperactivation in SHP2/E76K-expressing cells” value in assay [1] was “effectively inhibited”. Moreover, in assay [1], the “effect on GM-CSF induced ERK1/2 activation in macrophage progenitors” value was “abrogated”. Also, the “concentration inhibiting human primary T-cell tyrosine phosphorylation” value in assay [2] was 1 µg/mL; in assay [2] (same value converted), 1.65 µM.
